Measured values from patent publication US20240150377A1, “MODULATORS OF CYSTIC FIBROSIS TRANSMEMBRANE CONDUCTANCE REGULATOR” (VERTEX PHARMACEUTICALS INCORPORATED, priority 2020, published 2024).

Assays:
CFTR [1] = target: T1, CFTR (Homo sapiens, UniProt P13569); assay: Membrane potential dye, Enteroid Assay B; format: cell-based; settings: for EC50: read-out: Ent. B EC50; for Ent. B Max Activity: chloride transport as % of triple combination control (Enteroid Assay B)
Description: Base medium (ADF+++) consisted of Advanced DMEM/Ham's F12, 2 mM Glutamax, 10 mM HEPES, […] penicillin/streptomycin.
Intestinal enteroid maintenance medium (IEMM) consisted of ADF+++, 1× B27 supplement, 1× N2 supplement, 1.25 mM N-acetyl cysteine, 10 mM Nicotinamide, 50 ng/mL hEGF, 10 nM Gastrin, 1 μg/mL hR-spondin-1, 100 ng/mL hNoggin, TGF-b type 1 inhibitor A-83-01, 100 μg/mL Primocin, 10 μM P38 MAPK inhibitor SB202190.
Bath 1 Buffer consisted of 1 mM MgCl2, 160 mM NaCl, 4.5 mM KCl, 10 mM HEPES, 10 mM Glucose, 2 mM CaCl2).
Chloride Free Buffer consisted of 1 mM Magnesium Gluconate, 2 mM Calcium Gluconate, 4.5 mM Potassium Gluconate, 160 mM Sodium Gluconate, 10 mM HEPES, 10 mM Glucose.
BathI Dye Solution consisted of Bath 1 Buffer, 0.04% Pluronic F127, 20 μM Methyl Oxonol, 30 μM CaCCinh-A01, 30 μM Chicago Sky Blue.
Chloride Free Dye Solution consisted of Chloride Free Buffer, 0.04% Pluronic F127, 20 μM Methyl Oxonol, 30 μM CaCCinh-A01, 30 μM Chicago Sky Blue.
Chloride Free Dye Stimulation Solution consisted of Chloride Free Dye Solution, 10 μM forskolin, 100 μM IBMX, and 300 nM Compound III.
Human intestinal epithelial enteroid cells were obtained from the Hubrecht Institute for Developmental Biology and Stem Cell Research, Utrecht, The Netherlands and expanded in T-Flasks as previously described (Dekkers J F, Wiegerinck C L, de Jonge H R, Bronsveld I, Janssens H M, de Winter-de Groot K M, Brandsma A M, de Jong N W M, Bijvelds M J C, Scholte B J, Nieuwenhuis E E S, van den Brink S, Clevers H, van der Ent C K, Middendorp S and M Beekman J M. A functional CFTR assay using primary cystic fibrosis intestinal organoids. Nat Med. 2013 July;19(7):939-45.).
3. Enteroid Cell Harvesting and Seeding
Cells were recovered in cell recovery solution, collected by centrifugation at 650 rpm for 5 min at 4° C., resuspended in TrypLE and incubated for 5 min at 37° C. Cells were then collected by centrifugation at 650 rpm for 5 min at 4° C. and resuspended in IEMM containing 10 μM ROCK inhibitor (RI). The cell suspension was passed through a 40 μm cell strainer and resuspended at 1×10^6 cells/mL in IEMM containing 10 μM RI. Cells were seeded at 5000 cells/well into multi-well plates and incubated for overnight at 37° C., 95% humidity and 5% CO2 prior to assay.
5. Membrane Potential Dye, Enteroid Assay B
Enteroid cells were incubated with test compound in IEMM for 18-24 hours at 37° C., 95% humidity and 5% CO2. […] Briefly, cells were washed 5 times in Bath 1 Buffer. Bath 1 Dye Solution was added and the cells were incubated for 25 min at room temperature. Following dye incubation, cells were washed 3 times in Chloride Free Dye Solution. Chloride transport was initiated by addition of Chloride Free Dye Stimulation Solution and the fluorescence signal was read for 15 min. […] Chloride transport was then expressed as a percentage of the chloride transport following treatment with 1 μM (14S)-8-[3-(2-{Dispiro[2.0.2.1]heptan-7-yl}ethoxy)-1H-pyrazol-1-yl]-12,12-dimethyl-2λ^6-thia-3,9,11,18,23-pentaazatetracyclo[17.3.1.111,14.05,10]tetracosa-1(22),5,7,9,19(23),20-hexaene-2,2,4-trione, 3 μM (R)-1-(2,2-difluorobenzo[d][1,3]dioxol-5-yl)-N-(1-(2,3-dihydroxypropyl)-6-fluoro-2-(1-hydroxy-2-methylpropan-2-yl)-1H-indol-5-yl)cyclopropanecarboxamide and 300 nM acute N-[2,4-bis(1,1-dimethylethyl)-5-hydroxyphenyl]-1,4-dihydro-4-oxoquinoline-3-carboxamide triple combination control (% Activity).

CFTR [2] = target: T1, CFTR; assay: Membrane potential dye, Enteroid Assay A; format: cell-based; settings: for Ent. A Max Activity: chloride transport as % of triple combination control (Enteroid Assay A); for EC50: human enteroid cells, 18-24 hours, acute 10 μM forskolin and 300 nM ivacaftor, read-out: Ent. A EC50
How it was run: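 Human intestinal enteroids incubated 18-24 h at 37 °C with test compound, then loaded with 20 μM methyl oxonol (with CaCC inhibitors). Chloride transport triggered in chloride-free buffer with 10 μM forskolin, 100 μM IBMX, 300 nM Compound III; fluorescence read 15 min, expressed as % of a triple-combination corrector/potentiator control.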

[3] = Table 8, human enteroid cells, 18-24 hours, acute 10 μM forskolin and 300 nM ivacaftor

T1 sequence (P13569 with tags, fused parts or gaps DEL508-508): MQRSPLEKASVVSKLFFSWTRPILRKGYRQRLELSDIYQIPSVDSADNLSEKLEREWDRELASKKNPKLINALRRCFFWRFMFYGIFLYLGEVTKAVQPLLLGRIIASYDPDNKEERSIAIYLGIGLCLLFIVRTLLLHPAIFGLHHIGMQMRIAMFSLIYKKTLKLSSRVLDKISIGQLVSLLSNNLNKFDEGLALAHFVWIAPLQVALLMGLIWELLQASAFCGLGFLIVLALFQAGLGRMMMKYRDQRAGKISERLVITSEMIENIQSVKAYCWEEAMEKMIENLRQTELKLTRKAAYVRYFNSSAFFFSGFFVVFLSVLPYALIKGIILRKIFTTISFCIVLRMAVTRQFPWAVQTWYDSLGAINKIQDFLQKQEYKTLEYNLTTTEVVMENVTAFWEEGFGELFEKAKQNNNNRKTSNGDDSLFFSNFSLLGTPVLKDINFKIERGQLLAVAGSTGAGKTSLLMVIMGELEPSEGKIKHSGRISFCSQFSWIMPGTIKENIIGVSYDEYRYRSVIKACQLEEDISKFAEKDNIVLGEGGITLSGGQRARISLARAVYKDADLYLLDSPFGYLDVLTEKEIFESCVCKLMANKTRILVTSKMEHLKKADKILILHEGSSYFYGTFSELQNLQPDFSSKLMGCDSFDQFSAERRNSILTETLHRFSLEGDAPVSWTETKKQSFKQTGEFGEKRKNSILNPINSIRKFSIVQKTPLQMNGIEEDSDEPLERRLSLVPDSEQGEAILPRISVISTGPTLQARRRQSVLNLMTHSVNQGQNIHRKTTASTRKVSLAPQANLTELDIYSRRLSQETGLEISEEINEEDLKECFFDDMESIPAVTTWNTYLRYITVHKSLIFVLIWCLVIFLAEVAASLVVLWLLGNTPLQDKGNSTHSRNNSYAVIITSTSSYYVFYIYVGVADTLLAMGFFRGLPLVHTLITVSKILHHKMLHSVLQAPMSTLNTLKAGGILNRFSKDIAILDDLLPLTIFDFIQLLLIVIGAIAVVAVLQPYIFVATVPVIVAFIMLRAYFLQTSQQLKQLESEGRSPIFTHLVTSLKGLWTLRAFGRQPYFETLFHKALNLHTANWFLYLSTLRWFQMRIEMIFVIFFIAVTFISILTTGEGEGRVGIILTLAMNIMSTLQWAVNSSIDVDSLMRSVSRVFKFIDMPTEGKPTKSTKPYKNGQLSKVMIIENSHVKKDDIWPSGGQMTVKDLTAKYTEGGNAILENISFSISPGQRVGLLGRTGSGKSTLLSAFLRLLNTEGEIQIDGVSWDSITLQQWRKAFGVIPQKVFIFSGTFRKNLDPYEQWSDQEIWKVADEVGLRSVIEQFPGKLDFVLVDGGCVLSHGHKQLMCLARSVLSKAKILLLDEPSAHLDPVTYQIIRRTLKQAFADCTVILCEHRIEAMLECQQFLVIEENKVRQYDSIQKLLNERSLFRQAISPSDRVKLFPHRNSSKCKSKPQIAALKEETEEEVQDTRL

Compound: Cc1cccc(C)c1-c1cc2nc(n1)NS(=O)(=O)c1cccc(c1)C(=O)N(CC1CC(O)(Cc3ccccc3)C1)[C@H](CC(C)(C)C)CO2 (single isomer, unassigned) [Compound 67]
- Ent. B Max Activity (%) (CFTR [1]; Table 9): +++ (+++ is >600%)
- EC50 (CFTR [1]; Table 9): < 1000 nM

Compound: Cc1cccc(C)c1-c1cc2nc(n1)NS(=O)(=O)c1cccc(c1)C(=O)N(CC1CC(O)(Cc3ccccc3)C1)[C@H](CC(C)(C)C)CO2 (single isomer, unassigned) [Compound 68]
- Ent. B Max Activity (%) (CFTR [1]; Table 9): +++ (+++ is >600%)
- EC50 (CFTR [1]; Table 9): < 1000 nM

Compound: Cc1cccc(C)c1-c1cc2nc(n1)NS(=O)(=O)c1cccc(c1)C(=O)N(C)CC(c1ccc(CC3(C(F)(F)F)CC3)cn1)O2 (single isomer, unassigned) [Compound 104, 6-(2,6-dimethylphenyl)-12-methyl-10-(5-{[1-(trifluoromethyl)cyclopropyl]methyl}pyridin-2-yl)-9-oxa-2λ^6-thia-3,5,12,19-tetraazatricyclo[12.3.1.14,8]nonadeca-1(17),4(19),5,7,14(18),15-hexaene-2,2,13-trione]
- Ent. B Max Activity (CFTR [1]; Table 8): +++ (+++ is >60%)
- EC50 (CFTR [1]; [3]): < 1000 nM

Compound: Cc1cccc(C)c1-c1cc2nc(n1)NS(=O)(=O)c1cccc(c1)C(=O)N(C)CC(c1ccc(CC3(C(F)(F)F)CC3)cn1)O2 (single isomer, unassigned) [Compound 105, 6-(2,6-dimethylphenyl)-12-methyl-10-(5-{[1-(trifluoromethyl)cyclopropyl]methyl}pyridin-2-yl)-9-oxa-2λ^6-thia-3,5,12,19-tetraazatricyclo[12.3.1.14,8]nonadeca-1(17),4(19),5,7,14(18),15-hexaene-2,2,13-trione]
- Ent. B Max Activity (CFTR [1]; Table 8): + (+ is <30%)
- EC50 (CFTR [1]; [3]): < 1000 nM

Compound: Cc1cccc(C)c1-c1cc2nc(n1)NS(=O)(=O)c1cccc(c1)C(=O)N(CC1CCC(C)(O)CC1)[C@H](CC(C)(C)C)CO2 (single isomer, unassigned) [Compound 149]
- Ent. B Max Activity (CFTR [1]; Table 8): +++ (+++ is >60%)
- EC50 (CFTR [1]; [3]): < 1000 nM

Compound: Cc1cccc(C)c1-c1cc2nc(n1)NS(=O)(=O)c1cccc(c1)C(=O)N(CC1CCC(C)(O)CC1)[C@H](CC(C)(C)C)CO2 (single isomer, unassigned) [Compound 150]
- Ent. B Max Activity (CFTR [1]; Table 8): +++ (+++ is >60%)
- EC50 (CFTR [1]; [3]): < 1000 nM

Compound: Cc1cccc(C)c1-c1cc2nc(n1)NS(=O)(=O)c1cccc(c1)C(=O)N(CCCOC(F)(F)F)[C@H](CC(C)C)CO2 [Compound 42, (11R)-6-(2,6-Dimethylphenyl)-11-isobutyl-2,2-dioxo-12-[3-(trifluoromethoxy)propyl]-9-oxa-2λ^6-thia-3,5,12,19-tetrazatricyclo[12.3.1.14,8]nonadeca-1(18),4(19),5,7,14,16-hexaen-13-one]
- Ent. B Max Activity (CFTR [1]; Table 8): +++ (+++ is >60%)
- EC50 (CFTR [1]; [3]): < 1000 nM

Compound: Cc1cccc(C)c1-c1cc2nc(n1)NS(=O)(=O)c1cccc(c1)C(=O)N(CC(C)(C)O)[C@H](CC(C)C)CO2 [Compound 43, (11R)-6-(2,6-Dimethylphenyl)-12-(2-hydroxy-2-methyl-propyl)-11-isobutyl-2,2-dioxo-9-oxa-2λ^6-thia-3,5,12,19-tetrazatricyclo[12.3.1.14,8]nonadeca 1(18),4(19),5,7,14,16-hexaen-13-one]
- Ent. B Max Activity (CFTR [1]; Table 8): +++ (+++ is >60%)
- EC50 (CFTR [1]; [3]): < 1000 nM

Compound: Cc1cccc(C)c1-c1cc2nc(n1)NS(=O)(=O)c1cccc(c1)CN(CCCCO)[C@H](CC(C)C)CO2 [Compound 46, 4-[(11R)-6-(2,6-Dimethylphenyl)-11-isobutyl-2,2-dioxo-9-oxa-2λ^6-thia-3,5,12,19-tetrazatricyclo[12.3.1.14,8]nonadeca-1(18),4(19),5,7,14,16-hexaen-12-yl]butan-1-ol]
- Ent. B Max Activity (CFTR [1]; Table 8): +++ (+++ is >60%)
- EC50 (CFTR [1]; [3]): < 1000 nM

Compound: Cc1cccc(C)c1-c1cc2nc(n1)NS(=O)(=O)c1cccc(c1)C(=O)N(Cc1ccnc(N)c1)[C@H](CC(C)(C)C)CO2 [Compound 61, (11R)-12-[(2-Amino-4-pyridyl)methyl]-6-(2,6-dimethylphenyl)-11-(2,2-dimethylpropyl)-2,2-dioxo-9-oxa-2λ^6-thia-3,5,12,19-tetrazatricyclo[12.3.1.14,8]nonadeca-1(18),4(19),5,7,14,16-hexaen-13-one]
- Ent. B Max Activity (%) (CFTR [1]; Table 9): +++ (+++ is >600%)
- EC50 (CFTR [1]; Table 9): < 1000 nM

Compound: Cc1cccc(C)c1-c1cc2nc(n1)NS(=O)(=O)c1cccc(c1)C(=O)N(CC13CC(C(C)(C)O)(C1)C3)[C@H](CC(C)(C)C)CO2 [Compound 69, (11R)-6-(2,6-Dimethylphenyl)-11-(2,2-dimethylpropyl)-12-[[3-(1-hydroxy-1-methyl-ethyl)-1-bicyclo[1.1.1]pentanyl]methyl]-2,2-dioxo-9-oxa-2λ^6-thia-3,5,12,19-tetrazatricyclo[12.3.1.14,8]nonadeca-1(18),4(19),5,7,14,16-hexaen-13-one]
- Ent. B Max Activity (%) (CFTR [1]; Table 9): +++ (+++ is >600%)
- EC50 (CFTR [1]; Table 9): < 1000 nM

Compound: COC1CCC(CC(=O)N2Cc3cccc(c3)S(=O)(=O)Nc3nc(cc(-c4c(C)cccc4C)n3)OC[C@H]2CC(C)C)CC1 (stereo partly shown) [Compound 1045]
- Ent. A Max Activity (CFTR [2]; Table 7): + (+ is <30%)

Compound: Cc1cccc(C)c1-c1cc2nc(n1)NS(=O)(=O)c1cccc(c1)CN(C(=O)CC(C)(C)C)[C@H](CC(C)C)CO2 [Compound 1046]
- Ent. A Max Activity (CFTR [2]; Table 7): + (+ is <30%)

Compound: COC1CCC(CC(=O)N2Cc3cccc(c3)S(=O)(=O)Nc3nc(cc(-c4c(C)cccc4C)n3)OC[C@H]2CC(C)C)CC1 (stereo partly shown) [Compound 1047]
- Ent. A Max Activity (CFTR [2]; Table 7): + (+ is <30%)

Compound: Cc1cccc(C)c1-c1cc2nc(n1)NS(=O)(=O)c1cccc(c1)CN(C(=O)CC1CCN(C)CC1)[C@H](CC(C)C)CO2 [Compound 1048]
- Ent. A Max Activity (CFTR [2]; Table 7): +++ (+++ is >60%)
- EC50 (CFTR [2]; Table 7): 1000 to 3000 nM

Compound: Cc1cccc(C)c1-c1cc2nc(n1)NS(=O)(=O)c1cccc(c1)CN(C(=O)CC(C)C)[C@H](CC(C)C)CO2 [Compound 1049]
- Ent. A Max Activity (CFTR [2]; Table 7): + (+ is <30%)

Compound: Cc1cccc(C)c1-c1cc2nc(n1)NS(=O)(=O)c1cccc(c1)CN(C(=O)CC1CCCCC1)[C@H](CC(C)C)CO2 [Compound 1050]
- Ent. A Max Activity (CFTR [2]; Table 7): + (+ is <30%)
- EC50 (CFTR [2]; Table 7): 1000 to 3000 nM

Compound: Cc1cccc(C)c1-c1cc2nc(n1)NS(=O)(=O)c1cccc(c1)CN(C(=O)Cc1ccccc1)[C@H](CC(C)C)CO2 [Compound 1051]
- Ent. A Max Activity (CFTR [2]; Table 7): ++ (++ is 30-60%)
- EC50 (CFTR [2]; Table 7): 1000 to 3000 nM

Compound: CCCC(=O)N1Cc2cccc(c2)S(=O)(=O)Nc2nc(cc(-c3c(C)cccc3C)n2)OC[C@H]1CC(C)C [Compound 1052]
- Ent. A Max Activity (CFTR [2]; Table 7): ++ (++ is 30-60%)

Compound: Cc1cccc(C)c1-c1cc2nc(n1)NS(=O)(=O)c1cccc(c1)C(=O)N(CCN1CCOCC1)[C@H](CC(C)C)CO2 [Compound 1108]
- Ent. A Max Activity (CFTR [2]; Table 6): +++ (+++ is >60%)
- EC50 (CFTR [2]; Table 6): < 1000 nM

Compound: Cc1cccc(C)c1-c1cc2nc(n1)NS(=O)(=O)c1cccc(c1)C(=O)N(Cc1ccc(=O)[nH]c1)[C@H](CC(C)C)CO2 [Compound 1109]
- Ent. A Max Activity (CFTR [2]; Table 6): +++ (+++ is >60%)
- EC50 (CFTR [2]; Table 6): 1000 to 3000 nM
